Assay [1] has as its target T1, β1-adrenoceptor (left atrium) (Cavia porcellus, UniProt H0W3H1).
T1 construct: Spontaneously-beating right atria were removed from the hearts and mounted in a 10 ml organ bath; from tissue; host or cells: isolated guinea-pig (Hartley) right and left atria
Description: β-adrenoceptor antagonism in isolated electrically driven left atria (isoproterenol inotropic response). On the set-up: species or system guinea-pig. The method, then:
In the isolated left atria, quiescent left atria were dissected free of connective tissue and mounted in organ chambers under a resting tension of 0.5 g. […] Cumulative concentration-response curves to the positive inotropic effects of (-) isoproterenol were obtained in the absence and presence of various concentrations of a test compound. An incubation time of 30 min was allowed for the test compound. Data were calculated as a percentage of the increase in force induced by (-) isoproterenol.
(§1) The pA2 values and slope values were calculated from individual Schild plots by regression analysis. The β1 /β2 -selectivity ratio was obtained from the antilogarithm of the difference between the mean pA2 values obtained from right atrium and trachea.
(§2) Mean cumulative concentration-response curves are shown for the positive chronotropic responses to (-) isoproterenol in spontaneously-beating guinea-pig right atria, positive inotropic responses to (-) isoproterenol in electrically driven guinea-pig left atria, and relaxant effects to (-) isoproterenol in guinea-pig spontaneous tone tracheal strips in the absence (.smallcircle.) or presence of 0.01 (.circle-solid.), 0.1, 1 (.tangle-soliddn.) or 10 (.diamond.) μM of vasomolol.

Assay [2] concerns isolated rat thoracic aorta. Briefly: Inhibition of phenylephrine and high K+ induced contractions of isolated rat aorta (vasodilatation effect). The method, then: Male rats weighing 200-250 g were sacrificed by a blow on the head and the thoracic aorta was removed and cleaned of all loosely adhering tissue. The thoracic aorta was cut from an area close to the aortic arch, immediately placed in a physiological solution, and trimmed to 2-4 mm in length as described in Gen. Pharmacol. 24, 1425, 1993 (by inventor group) The rings were then mounted with a tension of 1.0 g between parallel hooks in a 10 ml organ bath containing a physiological solution(mM):NaCl 112; KCl5.0; NaHCO3 25; KH2 PO4 1.0; CaCl2 1.25; MgSO4 1.2; and glucose 11.5]. The bath was maintained at 37° C. and aerated with a mixture of 95% O2 and 5% CO2. The tension of the aortic rings were recorded isometrically by means of a force displacement transducer (UGO, Model 7004, Italy) connected to an amplifier (COULBOURN, Model S72-25, U.S.A.). Before the start of the experiments, all preparations were allowed to equilibrate for 1.0 hr in the physiologic solution.
Effects of vasomolol on (A) phenylephrine(10^-5 M) and (B) high K^+ (75 mM) induced contraction in rat thoracic aorta.

The target of assay [3] is T2, β2-adrenoceptor (trachea) (Cavia porcellus, UniProt Q8K4Z4).
T2 construct: Guinea-pig trachea were cleaned of extraneous connective tissue and cut into spiral strips; from tissue; host or cells: isolated guinea-pig tracheal spiral strips
Description: β-adrenoceptor antagonism in isolated tracheal strips (isoproterenol-induced relaxation). On the set-up: species or system guinea-pig. The procedure: Guinea-pig trachea were cleaned of extraneous connective tissue and cut into spiral strips as described in Gen. […] This spiral strip was cut into two equal segments and both were suspended in organ baths filled with 20 ml of Kreb's solution. […] An initial basal tension of 2 g was applied to each tracheal strip and the tissue was allowed to gain tone spontaneously until a steady level was reached (60 min).
as §1, §2

T2 sequence (Q8K4Z4 whole entry): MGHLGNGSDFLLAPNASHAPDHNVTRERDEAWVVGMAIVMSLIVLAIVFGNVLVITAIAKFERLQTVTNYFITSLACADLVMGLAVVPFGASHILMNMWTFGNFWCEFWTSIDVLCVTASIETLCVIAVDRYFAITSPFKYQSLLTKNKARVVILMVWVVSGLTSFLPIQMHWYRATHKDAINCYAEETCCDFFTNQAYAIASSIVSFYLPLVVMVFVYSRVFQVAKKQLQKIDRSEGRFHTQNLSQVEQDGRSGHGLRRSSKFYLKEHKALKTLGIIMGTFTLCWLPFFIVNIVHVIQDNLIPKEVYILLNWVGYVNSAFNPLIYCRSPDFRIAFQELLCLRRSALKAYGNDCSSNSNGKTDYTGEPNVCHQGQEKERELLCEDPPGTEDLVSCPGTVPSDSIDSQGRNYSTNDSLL
T1 sequence (H0W3H1 1-470): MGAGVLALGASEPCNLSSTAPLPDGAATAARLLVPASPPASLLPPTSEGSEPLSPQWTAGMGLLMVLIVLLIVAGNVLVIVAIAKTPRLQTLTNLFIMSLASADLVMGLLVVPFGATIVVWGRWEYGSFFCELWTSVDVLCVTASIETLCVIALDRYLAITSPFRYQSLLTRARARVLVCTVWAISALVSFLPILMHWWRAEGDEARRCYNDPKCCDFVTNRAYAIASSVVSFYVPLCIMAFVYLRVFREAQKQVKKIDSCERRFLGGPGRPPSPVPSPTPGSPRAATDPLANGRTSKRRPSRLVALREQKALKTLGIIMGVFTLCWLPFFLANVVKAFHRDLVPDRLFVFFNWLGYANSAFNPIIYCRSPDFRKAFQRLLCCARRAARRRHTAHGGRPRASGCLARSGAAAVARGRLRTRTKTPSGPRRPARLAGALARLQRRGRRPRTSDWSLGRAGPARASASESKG

`CCOC(=O)c1ccc(OCC(O)CNC(C)(C)C)c(OC)c1` (centres unmarked) [Vasomolol]: the “antagonism of isoproterenol-induced positive inotropic responses” value in assay [1] (electrically driven left atrial strips) is “produced dose-dependent rightward shifts of the cumulative concentration-response curves to isoproterenol”. The “relative β-adrenoceptor blocking potency” value in assay [1] (guinea-pig atria, in words) was “more potent than atenolol, slightly more potent than metoprolol, and was less potent than propranolol”. The “pA2 value, β1, left atrium” value in assay [1] (mean ± SEM, six to eight experiments, 30 min) turned out to be 7.44 ± 0.03. Moreover, in assay [1] (regression of Schild plot), the “Schild slope, left atrium” value was 0.89 ± 0.02. Besides, the “inhibition of high K+ induced contraction” value in assay [2] (K+ 75 mM, vasomolol printed 10^6 -10^5 M) is reported as “significantly inhibited”. In addition, the “relaxation sensitivity, high K+ versus phenylephrine” value in assay [2] (in words) was “more sensitive in high K^+ than in phenylephrine-contracted aorta preparations”. The “inhibition of phenylephrine-induced contraction” value in assay [2] (phenylephrine printed 10^5 M, vasomolol printed 10^6 -10^5 M) is “significantly inhibited”. For the same compound, the “relative β2-adrenoceptor blocking potency” value in assay [3] (in words) is on record as “less potent than propranolol”. Besides, in assay [3] (mean ± SEM, six to eight experiments, 60 min), the “pA2 value, β2, trachea” value was 5.81 ± 0.11. For the same compound, the “antagonism of (-) isoproterenol-induced relaxation” value in assay [3] (printed 5×10^8 -10^6 M, tracheal strips) was “competitively antagonized”. In assay [3] (regression of Schild plot), the “Schild slope, trachea” value was 0.81 ± 0.06.

(Values after patent US5939578A, “Vasomolol: an ultra short-acting and vasodilatory vanilloid type β - adrenoceptor antagonist” (Lin; Tong-Ho, priority 1996, dated 1999).)
